Where two headings read alike, the source gives them in different places.
Columns and labels:
[1] = biological target: FGFR1 (Homo sapiens (Human), UniProt P11362); test: FGFR Enzymatic Assay (FRET peptide phosphorylation), FGFR1
[2] = biological target: FGFR2 (Homo sapiens (Human), UniProt P21802); test: FGFR Enzymatic Assay (FRET peptide phosphorylation), FGFR2; type: biochemical
Method: (§1) The inhibitor potency of the exemplified compounds was measured in an enzyme assay that measures peptide phosphorylation using FRET measurements to detect product formation. Inhibitors were serially diluted in DMSO and a volume of 0.5 μL was transferred to the wells of a 384-well plate.
The enzymes were purchased from Millipore or Invitrogen.
(§2) GraphPad prism3 was used to analyze the data.

[3] = biological target: FGFR3 enzyme (Homo sapiens (Human), UniProt P22607); test: FGFR Enzymatic Assay (FRET peptide phosphorylation), FGFR3; type: biochemical; conditions: read-out: FGFR3 IC50
FGFR3 enzyme, sequence (P22607 23-806): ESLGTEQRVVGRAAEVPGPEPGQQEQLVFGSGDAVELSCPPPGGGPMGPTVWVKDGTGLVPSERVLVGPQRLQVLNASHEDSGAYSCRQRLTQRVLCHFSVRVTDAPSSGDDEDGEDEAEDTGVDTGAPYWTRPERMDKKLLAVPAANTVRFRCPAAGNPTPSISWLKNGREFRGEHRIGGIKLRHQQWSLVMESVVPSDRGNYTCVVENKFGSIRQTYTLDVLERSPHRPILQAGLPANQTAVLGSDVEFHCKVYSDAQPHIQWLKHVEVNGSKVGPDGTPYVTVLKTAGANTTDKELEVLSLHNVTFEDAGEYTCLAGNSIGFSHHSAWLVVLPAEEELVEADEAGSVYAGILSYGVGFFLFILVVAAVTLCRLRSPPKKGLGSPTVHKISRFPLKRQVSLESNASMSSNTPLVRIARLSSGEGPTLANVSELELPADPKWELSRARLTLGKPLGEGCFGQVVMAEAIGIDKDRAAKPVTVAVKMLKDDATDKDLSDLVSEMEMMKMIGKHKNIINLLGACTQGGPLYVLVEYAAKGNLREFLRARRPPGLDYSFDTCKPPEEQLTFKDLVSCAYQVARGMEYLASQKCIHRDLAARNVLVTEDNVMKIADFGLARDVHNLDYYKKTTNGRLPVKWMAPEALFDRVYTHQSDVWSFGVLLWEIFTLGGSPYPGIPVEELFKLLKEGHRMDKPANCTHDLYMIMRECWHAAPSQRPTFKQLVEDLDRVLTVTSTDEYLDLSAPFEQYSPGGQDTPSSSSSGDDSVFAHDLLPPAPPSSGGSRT
Method: as §1, §2

[4] = FGFR1 IC50 (nM), pre-incubated for 5 to 10 minutes
[5] = FGFR1 IC50 (nM), pre-incubated for 4 hours
[6] = pre-incubated for 5 to 10 minutes
[7] = read-out: FGFR1 IC50, pre-incubated for 4 hours
[8] = read-out: FGFR1 IC50, pre-incubated for 5 to 10 minutes

FGFR2, sequence (P21802 22-821): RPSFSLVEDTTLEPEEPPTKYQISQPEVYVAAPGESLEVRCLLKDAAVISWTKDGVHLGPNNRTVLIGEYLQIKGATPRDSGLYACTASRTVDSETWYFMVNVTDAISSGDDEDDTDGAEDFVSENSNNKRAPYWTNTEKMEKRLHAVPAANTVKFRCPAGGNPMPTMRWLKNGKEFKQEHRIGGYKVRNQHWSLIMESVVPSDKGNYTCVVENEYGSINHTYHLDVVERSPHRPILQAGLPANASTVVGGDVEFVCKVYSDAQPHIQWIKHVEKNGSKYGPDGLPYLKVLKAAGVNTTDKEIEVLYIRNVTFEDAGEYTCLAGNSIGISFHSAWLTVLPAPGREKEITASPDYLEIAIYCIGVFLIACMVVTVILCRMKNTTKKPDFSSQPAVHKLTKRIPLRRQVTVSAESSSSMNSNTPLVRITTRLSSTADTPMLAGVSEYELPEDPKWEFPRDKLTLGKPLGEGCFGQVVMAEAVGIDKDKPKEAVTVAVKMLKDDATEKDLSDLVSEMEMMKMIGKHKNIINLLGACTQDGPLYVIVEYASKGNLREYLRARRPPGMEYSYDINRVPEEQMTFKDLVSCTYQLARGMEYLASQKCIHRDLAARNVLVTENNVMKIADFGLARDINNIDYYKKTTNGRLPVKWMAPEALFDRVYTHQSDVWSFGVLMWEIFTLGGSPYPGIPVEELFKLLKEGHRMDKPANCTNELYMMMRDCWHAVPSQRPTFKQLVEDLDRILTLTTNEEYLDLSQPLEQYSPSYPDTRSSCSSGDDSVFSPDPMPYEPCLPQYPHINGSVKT
FGFR1, sequence (P11362 22-822): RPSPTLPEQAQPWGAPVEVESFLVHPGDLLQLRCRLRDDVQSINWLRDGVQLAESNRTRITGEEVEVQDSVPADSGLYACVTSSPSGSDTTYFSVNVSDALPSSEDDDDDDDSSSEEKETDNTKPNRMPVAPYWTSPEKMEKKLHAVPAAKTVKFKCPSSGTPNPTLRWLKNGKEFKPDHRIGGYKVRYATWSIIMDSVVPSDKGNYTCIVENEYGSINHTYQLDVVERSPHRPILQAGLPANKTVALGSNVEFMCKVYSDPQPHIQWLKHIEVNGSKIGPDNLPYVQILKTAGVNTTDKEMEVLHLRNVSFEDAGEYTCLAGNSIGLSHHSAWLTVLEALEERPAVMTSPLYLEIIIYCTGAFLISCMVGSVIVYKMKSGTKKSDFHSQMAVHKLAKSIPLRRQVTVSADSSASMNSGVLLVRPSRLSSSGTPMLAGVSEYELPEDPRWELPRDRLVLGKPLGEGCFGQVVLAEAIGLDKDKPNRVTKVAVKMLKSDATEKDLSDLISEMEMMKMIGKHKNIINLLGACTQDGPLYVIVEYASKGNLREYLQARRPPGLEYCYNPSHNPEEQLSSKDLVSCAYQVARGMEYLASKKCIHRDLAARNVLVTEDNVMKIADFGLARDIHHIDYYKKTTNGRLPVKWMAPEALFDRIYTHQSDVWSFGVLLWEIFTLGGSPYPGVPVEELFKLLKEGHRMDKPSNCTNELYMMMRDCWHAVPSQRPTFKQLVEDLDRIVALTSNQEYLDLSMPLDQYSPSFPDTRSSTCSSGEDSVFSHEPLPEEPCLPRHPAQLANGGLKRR

SMILES | IC50 [1, 4] [nM] | IC50 [1, 5] [nM] | IC50 [2, 6] [nM] | IC50 ([2]; pre-incubated for 4 hours) [nM] | IC50 [3, 6] [nM] | IC50 ([3]; pre-incubated for 4 hours) [nM] | IC50 [1, 7] [nM] | IC50 [1, 8] [nM]
COc1cc(OC)c(F)c(N2Cc3cnc(-c4cn(C)nc4C)cc3N(Cc3ccccn3)C2=O)c1F [Example 94, 3-(2,6-difluoro-3,5-dimethoxyphenyl)-7-(1,3-dimethyl-1H-pyrazol-4-yl)-1-(pyridin-2-ylmethyl)-3,4-dihydropyrido[4,3-d]pyrimidin-2(1H)-one] |  |  |  | < 10 |  | < 10 | < 10 | 
CCN1C(=O)N(c2c(F)c(OC)cc(OC)c2F)Cc2cnc(-c3cnn(C)c3)cc21 [Example 169, 3-(2,6-difluoro-3,5-dimethoxyphenyl)-1-ethyl-7-(1-methyl-1H-pyrazol-4-yl)-3,4-dihydropyrido[4,3-d]pyrimidin-2(1H)-one] |  |  | < 10 | < 10 | < 10 | < 10 | < 10 | < 10

Other lines, results leading:

IC50 [1, 4] [nM] | IC50 [1, 5] [nM] | IC50 [2, 6] [nM] | IC50 ([2]; pre-incubated for 4 hours) [nM] | IC50 [3, 6] [nM] | IC50 ([3]; pre-incubated for 4 hours) [nM] | IC50 [1, 7] [nM] | IC50 [1, 8] [nM] | SMILES
 | […] |  | < 10 |  | < 10 |  |  | CCc1nnc(CN2C(=O)N(c3c(F)c(OC)cc(OC)c3F)Cc3cnc(-c4cn(C)nc4C)cc32)o1 [Example 67, 3-(2,6-difluoro-3,5-dimethoxyphenyl)-7-(1,3-dimethyl-1H-pyrazol-4-yl)-1-((5-ethyl-1,3,4-oxadiazol-2-yl)methyl)-3,4-dihydropyrido[4,3-d]pyrimidin-2(1H)-one]
 |  | < 10 |  | < 10 |  |  | < 10 | CCn1cc(CN2C(=O)N(c3c(F)c(OC)cc(OC)c3F)Cc3cnc(-c4cnn(C)c4)cc32)cn1 [Example 145, 3-(2,6-difluoro-3,5-dimethoxyphenyl)-1-((1-ethyl-1H-pyrazol-4-yl)methyl)-7-(1-methyl-1H-pyrazol-4-yl)-3,4-dihydropyrido[4,3-d]pyrimidin-2(1H)-one]
 | […] |  | < 10 |  | < 10 |  |  | COc1cc(OC)c(F)c(N2Cc3cnc(-c4cnn(C5(C#N)CCC5)c4C)cc3C3(CC3)C2=O)c1F [Example 149, 1-(4-(2′-(2,6-difluoro-3,5-dimethoxyphenyl)-3′-oxo-2′,3′-dihydro-1′H-spiro[cyclopropane-1,4′-[2,7]naphthyridine]-6′-yl)-5-methyl-1H-pyrazol-1-yl)cyclobutanecarbonitrile]
